Reference: publication PMC11096235, “Membrane-bound chemoreception of bitter bile acids and peptides is mediated by the same subset of bitter taste receptors” (Cellular and Molecular Life Sciences: CMLS, 2024)
Peptide text beside a SMILES is read from it.

What was measured:
Test in all cases: FLIPR calcium mobilization (Fluo-4), agonist activation
Format in all cases: cell-based
Conditions in all cases: HEK 293T-Gα16gust44 cells, pH 7.4
[1] = target: T1, zebrafish receptor Tas2r4 (Danio rerio, UniProt Q58WW8)
T1 construct: gene tas2r203; full length, N-terminal sst3 export tag, C-terminal hsv tag; HEK 293T-Galpha16gust44
T1 sequence (Q58WW8 1-305): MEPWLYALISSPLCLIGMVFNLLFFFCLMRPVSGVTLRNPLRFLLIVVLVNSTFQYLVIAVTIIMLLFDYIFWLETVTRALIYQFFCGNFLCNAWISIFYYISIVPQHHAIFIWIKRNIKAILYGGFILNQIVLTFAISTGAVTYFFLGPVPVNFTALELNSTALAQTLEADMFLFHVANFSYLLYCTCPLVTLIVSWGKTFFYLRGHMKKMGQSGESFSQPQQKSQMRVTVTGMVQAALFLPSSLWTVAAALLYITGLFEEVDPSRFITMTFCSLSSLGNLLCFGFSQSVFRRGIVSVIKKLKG

[2] = target: T2, chicken Tas2r2 (ggTas2r2) (Gallus gallus, UniProt A0A1D5PXM6)
T2 construct: gene LOC101747503; full length, N-terminal sst3 export tag, C-terminal hsv tag; HEK 293T-Galpha16gust44
T2 sequence (A0A1D5PXM6 1-311): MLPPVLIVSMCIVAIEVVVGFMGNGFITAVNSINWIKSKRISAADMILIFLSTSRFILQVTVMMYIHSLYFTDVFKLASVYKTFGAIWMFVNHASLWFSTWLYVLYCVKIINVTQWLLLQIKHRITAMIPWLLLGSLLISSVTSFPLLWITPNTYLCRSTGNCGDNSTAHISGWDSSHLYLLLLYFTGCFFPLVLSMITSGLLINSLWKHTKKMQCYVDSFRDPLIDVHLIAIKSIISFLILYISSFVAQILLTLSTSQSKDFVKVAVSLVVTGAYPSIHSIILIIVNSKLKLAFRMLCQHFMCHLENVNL

Tas2r29 (xtTas2r29) = target: T3, Tas2r29 (xtTas2r29) (Xenopus tropicalis, UniProt Q2AB56)
T3 construct: full length, N-terminal sst3 export tag, C-terminal hsv tag; HEK 293T-Galpha16gust44
T3 sequence (Q2AB56 1-290): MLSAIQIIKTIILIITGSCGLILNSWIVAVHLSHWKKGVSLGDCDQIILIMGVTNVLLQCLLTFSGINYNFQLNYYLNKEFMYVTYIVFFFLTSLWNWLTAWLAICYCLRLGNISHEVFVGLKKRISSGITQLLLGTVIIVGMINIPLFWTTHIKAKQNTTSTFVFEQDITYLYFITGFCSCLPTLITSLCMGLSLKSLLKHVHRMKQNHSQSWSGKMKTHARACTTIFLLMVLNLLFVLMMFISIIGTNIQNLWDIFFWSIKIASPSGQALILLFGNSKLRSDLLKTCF

N[C@@H](Cc1c[nH]c2ccccc12)C(=O)O [L-Trp] was tested, and the dF/F [1] was “Subsequent testing with L- and D-Trp revealed responsiveness to these amino acids”.

C[C@H](CCC(=O)O)[C@H]1CC[C@H]2[C@@H]3[C@H](O)C[C@@H]4C[C@H](O)CC[C@]4(C)[C@H]3C[C@H](O)[C@]12C [cholic acid] was tested, and the dF/F [2] was “chicken Tas2r2 were only significant for the highest concentrations of the two bile acids”.

In the case of N[C@@H](Cc1c[nH]c2ccccc12)C(=O)N[C@@H](Cc1c[nH]c2ccccc12)C(=O)N[C@@H](Cc1c[nH]c2ccccc12)C(=O)O [L-Trp-Trp-Trp] (H-Trp-Trp-Trp-OH), the dF/F (Tas2r29 (xtTas2r29)) is reported as “Tas2r29 exhibited only weak, yet significant, responses to L-Trp-Trp-Trp as well as to CA and GCA”.
